Reference: ChEMBL document CHEMBL1154361, “Oxiranylmethyloxy or thiiranylmethyloxy-azaxanthones and -acridone analogues as potential topoisomerase I inhibitors” (Bioorg Med Chem Lett, 2009)
Where a name gives a salt, the structure may show the parent alone.

What was measured:
HL-60 = assay: Cytotoxicity against human HL60 cells by MTT assay; type: functional, cell-based
[1] = target: DNA topoisomerase 2-alpha (Homo sapiens) (UniProt P11388); assay: Inhibition of human topoisomerase 2 at 20 uM
[2] = target: T1, DNA topoisomerase 1 (Homo sapiens) (UniProt P11387); assay: Inhibition of human topoisomerase 1 at 20 uM
T1 sequence (whole entry): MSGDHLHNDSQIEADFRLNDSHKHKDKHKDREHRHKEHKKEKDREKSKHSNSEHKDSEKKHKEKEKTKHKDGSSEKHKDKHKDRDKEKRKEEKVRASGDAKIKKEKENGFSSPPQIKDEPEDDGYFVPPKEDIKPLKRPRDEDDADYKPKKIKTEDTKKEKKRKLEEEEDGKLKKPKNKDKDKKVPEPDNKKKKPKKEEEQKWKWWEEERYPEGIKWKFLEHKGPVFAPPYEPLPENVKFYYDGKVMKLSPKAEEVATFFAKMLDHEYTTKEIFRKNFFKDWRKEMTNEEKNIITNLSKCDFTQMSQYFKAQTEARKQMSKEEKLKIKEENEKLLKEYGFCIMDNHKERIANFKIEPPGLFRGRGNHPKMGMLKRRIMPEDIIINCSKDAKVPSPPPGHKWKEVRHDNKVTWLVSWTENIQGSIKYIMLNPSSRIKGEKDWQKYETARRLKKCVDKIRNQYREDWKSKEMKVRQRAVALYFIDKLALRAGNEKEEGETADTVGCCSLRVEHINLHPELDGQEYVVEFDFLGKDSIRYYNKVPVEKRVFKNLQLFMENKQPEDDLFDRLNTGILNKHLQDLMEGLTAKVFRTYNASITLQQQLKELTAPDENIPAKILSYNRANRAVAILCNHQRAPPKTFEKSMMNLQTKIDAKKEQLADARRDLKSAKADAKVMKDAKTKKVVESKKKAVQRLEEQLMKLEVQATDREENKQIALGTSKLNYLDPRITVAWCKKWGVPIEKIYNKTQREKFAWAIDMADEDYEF

DU-145 = assay: Cytotoxicity against human DU145 cells by MTT assay; type: functional, cell-based
HeLa = assay: Cytotoxicity against human HeLa cells by MTT assay; type: functional, cell-based
MDA-MB-231 = assay: Cytotoxicity against human MDA-MB-231 cells by MTT assay; type: functional, cell-based
[3] = target: DNA topoisomerase 2-alpha (Homo sapiens) (UniProt P11388); assay: Inhibition of human topoisomerase 2 at 100 uM
HT-29 = assay: Cytotoxicity against human HT-29 cells by MTT assay; type: functional, cell-based
[4] = target: T1, DNA topoisomerase 1 (Homo sapiens); assay: Inhibition of human topoisomerase 1 at 100 uM

Chain of DNA topoisomerase 2-alpha (Homo sapiens) (P11388 whole entry): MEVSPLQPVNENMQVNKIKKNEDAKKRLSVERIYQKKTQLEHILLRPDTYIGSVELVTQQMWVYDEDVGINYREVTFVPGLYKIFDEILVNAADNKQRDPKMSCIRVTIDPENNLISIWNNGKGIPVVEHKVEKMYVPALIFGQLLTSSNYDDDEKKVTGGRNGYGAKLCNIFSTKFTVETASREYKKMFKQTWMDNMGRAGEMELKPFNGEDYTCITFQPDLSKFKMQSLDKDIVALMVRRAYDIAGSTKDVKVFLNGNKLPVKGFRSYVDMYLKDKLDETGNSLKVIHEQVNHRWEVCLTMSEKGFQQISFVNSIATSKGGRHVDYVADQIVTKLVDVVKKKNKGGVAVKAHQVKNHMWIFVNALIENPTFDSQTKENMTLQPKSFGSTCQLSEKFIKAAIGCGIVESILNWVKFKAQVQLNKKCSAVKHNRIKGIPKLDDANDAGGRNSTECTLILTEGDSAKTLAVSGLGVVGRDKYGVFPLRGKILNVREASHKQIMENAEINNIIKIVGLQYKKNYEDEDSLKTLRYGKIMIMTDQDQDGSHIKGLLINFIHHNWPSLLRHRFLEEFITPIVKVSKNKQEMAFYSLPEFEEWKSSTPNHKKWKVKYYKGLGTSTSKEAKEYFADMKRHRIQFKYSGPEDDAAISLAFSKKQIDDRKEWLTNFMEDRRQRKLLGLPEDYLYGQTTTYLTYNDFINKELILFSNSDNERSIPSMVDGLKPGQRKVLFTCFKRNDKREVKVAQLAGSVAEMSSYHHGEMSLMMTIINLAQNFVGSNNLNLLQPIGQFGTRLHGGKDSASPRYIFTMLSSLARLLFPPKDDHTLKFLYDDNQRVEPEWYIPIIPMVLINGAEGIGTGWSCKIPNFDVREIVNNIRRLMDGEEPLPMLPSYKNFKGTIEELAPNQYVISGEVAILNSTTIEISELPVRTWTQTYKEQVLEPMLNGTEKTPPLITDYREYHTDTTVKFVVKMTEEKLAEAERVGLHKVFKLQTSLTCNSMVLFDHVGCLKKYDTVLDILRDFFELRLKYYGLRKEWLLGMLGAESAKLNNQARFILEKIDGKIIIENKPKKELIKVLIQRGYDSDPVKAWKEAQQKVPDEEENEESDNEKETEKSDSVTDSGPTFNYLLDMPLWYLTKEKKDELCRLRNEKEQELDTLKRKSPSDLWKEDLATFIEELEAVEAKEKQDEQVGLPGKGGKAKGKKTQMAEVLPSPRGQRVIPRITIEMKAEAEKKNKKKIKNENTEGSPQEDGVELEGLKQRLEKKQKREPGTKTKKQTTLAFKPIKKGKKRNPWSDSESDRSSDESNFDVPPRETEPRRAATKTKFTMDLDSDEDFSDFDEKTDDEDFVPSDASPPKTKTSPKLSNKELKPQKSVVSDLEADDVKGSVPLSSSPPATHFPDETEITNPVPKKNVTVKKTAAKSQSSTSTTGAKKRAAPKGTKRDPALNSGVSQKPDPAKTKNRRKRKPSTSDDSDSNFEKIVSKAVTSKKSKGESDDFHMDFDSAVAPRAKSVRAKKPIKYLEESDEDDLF

SMILES	IC50 (HL-60)	inhibition [1]	inhibition [2]	IC50 (DU-145)	IC50 (HeLa)	IC50 (MDA-MB-231)	inhibition [3]	IC50 (HT-29)	inhibition [4]
O=c1c2ccccc2[nH]c2cc(OCC3CO3)cc(OCC3CO3)c12 (centres undefined)	22 µM	8.7%	2.5%	30.9 µM	> 50 µM	28.9 µM	13.2%	29.3 µM	0%
COc1cccc2c1C(=O)c1c(O)c3c(c(O)c1C2=O)C[C@@](O)(C(=O)CO)C[C@@H]3O[C@H]1C[C@H](N)[C@H](O)[C@H](C)O1 [DOXORUBICIN HYDROCHLORIDE]	0.88 µM			2.54 µM	1.08 µM	1.67 µM		3.9 µM	
O=c1c2cccnc2oc2cc(OCC3CS3)cc(O)c12 (centres undefined)	20.1 µM	9.2%	26.7%	15.8 µM	6.9 µM	18.2 µM	19.5%	> 50 µM	50.3%
O=c1c2ccccc2[nH]c2cc(OCC3CS3)cc(O)c12 (centres undefined)	23 µM	8.1%	0%	23 µM	> 50 µM	21.4 µM	8.7%	33 µM	2.3%
O=c1c2cccnc2oc2cc(OCC3CS3)cc(OCC3CS3)c12 (centres undefined)	10.5 µM	8.6%	5.2%	21 µM	9.96 µM	13 µM	6.7%	> 50 µM	0%
O=c1c2ccccc2[nH]c2cc(OCC3CS3)cc(OCC3CS3)c12 (centres undefined)	7.73 µM	8.5%	0%	23.2 µM	11.1 µM	8.02 µM	6.9%	23.2 µM	0%
CC[C@@]1(O)C(=O)OCc2c1cc1n(c2=O)Cc2cc3ccccc3nc2-1 [CAMPTOTHECIN]	0.067 µM			1 µM	0.58 µM	0.68 µM		1.07 µM	
O=c1c2ccccc2[nH]c2cc(OCC3CO3)cc(O)c12 (centres undefined)	12.5 µM	12.9%	10.8%	> 50 µM	> 50 µM	18.6 µM	18.1%	> 50 µM	9.1%
O=c1c2cccnc2oc2cc(OCC3CO3)cc(O)c12 (centres undefined)	24.8 µM	8.3%	1.8%	8.11 µM	22.1 µM	24.3 µM	30.3%	26.3 µM	0%
COc1cc([C@@H]2c3cc4c(cc3[C@@H](O[C@@H]3O[C@@H]5CO[C@@H](C)O[C@H]5[C@H](O)[C@H]3O)[C@H]3COC(=O)[C@H]23)OCO4)cc(OC)c1O [ETOPOSIDE]	0.93 µM	13.4%		5.16 µM	2.15 µM	3.5 µM		6.32 µM	
